Reference: patent US8211935B2, “Heterocyclic derivatives for modulation of calcium channels” (Vertex Pharmaceuticals Incorporated, priority 2004, dated 2012)
Read-outs that look alike come from different tables or passages of the source.

Target: T1, CaV2.2 (Homo sapiens, UniProt Q00975)
T1 construct: expressed in transfected cells; host or cells: HEK293
Test: VIPR optical membrane potential assay with electrical stimulation
Format: cell-based
In short: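 HEK293 cells stably expressing CaV2.2, stained with CC2-DMPE (10 μM final) and oxonol voltage-sensitive dyes, compound added with BaCl2. Membrane potential response evoked by 3-5 s electrical stimulation. Read as background-subtracted 460/580 nm emission ratio, response R=Rf/Ri, normalized to mibefradil positive and no-drug negative controls.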

[1] = Table 3, biological assay data, read-out: IC50

T1 sequence (Q00975 whole entry): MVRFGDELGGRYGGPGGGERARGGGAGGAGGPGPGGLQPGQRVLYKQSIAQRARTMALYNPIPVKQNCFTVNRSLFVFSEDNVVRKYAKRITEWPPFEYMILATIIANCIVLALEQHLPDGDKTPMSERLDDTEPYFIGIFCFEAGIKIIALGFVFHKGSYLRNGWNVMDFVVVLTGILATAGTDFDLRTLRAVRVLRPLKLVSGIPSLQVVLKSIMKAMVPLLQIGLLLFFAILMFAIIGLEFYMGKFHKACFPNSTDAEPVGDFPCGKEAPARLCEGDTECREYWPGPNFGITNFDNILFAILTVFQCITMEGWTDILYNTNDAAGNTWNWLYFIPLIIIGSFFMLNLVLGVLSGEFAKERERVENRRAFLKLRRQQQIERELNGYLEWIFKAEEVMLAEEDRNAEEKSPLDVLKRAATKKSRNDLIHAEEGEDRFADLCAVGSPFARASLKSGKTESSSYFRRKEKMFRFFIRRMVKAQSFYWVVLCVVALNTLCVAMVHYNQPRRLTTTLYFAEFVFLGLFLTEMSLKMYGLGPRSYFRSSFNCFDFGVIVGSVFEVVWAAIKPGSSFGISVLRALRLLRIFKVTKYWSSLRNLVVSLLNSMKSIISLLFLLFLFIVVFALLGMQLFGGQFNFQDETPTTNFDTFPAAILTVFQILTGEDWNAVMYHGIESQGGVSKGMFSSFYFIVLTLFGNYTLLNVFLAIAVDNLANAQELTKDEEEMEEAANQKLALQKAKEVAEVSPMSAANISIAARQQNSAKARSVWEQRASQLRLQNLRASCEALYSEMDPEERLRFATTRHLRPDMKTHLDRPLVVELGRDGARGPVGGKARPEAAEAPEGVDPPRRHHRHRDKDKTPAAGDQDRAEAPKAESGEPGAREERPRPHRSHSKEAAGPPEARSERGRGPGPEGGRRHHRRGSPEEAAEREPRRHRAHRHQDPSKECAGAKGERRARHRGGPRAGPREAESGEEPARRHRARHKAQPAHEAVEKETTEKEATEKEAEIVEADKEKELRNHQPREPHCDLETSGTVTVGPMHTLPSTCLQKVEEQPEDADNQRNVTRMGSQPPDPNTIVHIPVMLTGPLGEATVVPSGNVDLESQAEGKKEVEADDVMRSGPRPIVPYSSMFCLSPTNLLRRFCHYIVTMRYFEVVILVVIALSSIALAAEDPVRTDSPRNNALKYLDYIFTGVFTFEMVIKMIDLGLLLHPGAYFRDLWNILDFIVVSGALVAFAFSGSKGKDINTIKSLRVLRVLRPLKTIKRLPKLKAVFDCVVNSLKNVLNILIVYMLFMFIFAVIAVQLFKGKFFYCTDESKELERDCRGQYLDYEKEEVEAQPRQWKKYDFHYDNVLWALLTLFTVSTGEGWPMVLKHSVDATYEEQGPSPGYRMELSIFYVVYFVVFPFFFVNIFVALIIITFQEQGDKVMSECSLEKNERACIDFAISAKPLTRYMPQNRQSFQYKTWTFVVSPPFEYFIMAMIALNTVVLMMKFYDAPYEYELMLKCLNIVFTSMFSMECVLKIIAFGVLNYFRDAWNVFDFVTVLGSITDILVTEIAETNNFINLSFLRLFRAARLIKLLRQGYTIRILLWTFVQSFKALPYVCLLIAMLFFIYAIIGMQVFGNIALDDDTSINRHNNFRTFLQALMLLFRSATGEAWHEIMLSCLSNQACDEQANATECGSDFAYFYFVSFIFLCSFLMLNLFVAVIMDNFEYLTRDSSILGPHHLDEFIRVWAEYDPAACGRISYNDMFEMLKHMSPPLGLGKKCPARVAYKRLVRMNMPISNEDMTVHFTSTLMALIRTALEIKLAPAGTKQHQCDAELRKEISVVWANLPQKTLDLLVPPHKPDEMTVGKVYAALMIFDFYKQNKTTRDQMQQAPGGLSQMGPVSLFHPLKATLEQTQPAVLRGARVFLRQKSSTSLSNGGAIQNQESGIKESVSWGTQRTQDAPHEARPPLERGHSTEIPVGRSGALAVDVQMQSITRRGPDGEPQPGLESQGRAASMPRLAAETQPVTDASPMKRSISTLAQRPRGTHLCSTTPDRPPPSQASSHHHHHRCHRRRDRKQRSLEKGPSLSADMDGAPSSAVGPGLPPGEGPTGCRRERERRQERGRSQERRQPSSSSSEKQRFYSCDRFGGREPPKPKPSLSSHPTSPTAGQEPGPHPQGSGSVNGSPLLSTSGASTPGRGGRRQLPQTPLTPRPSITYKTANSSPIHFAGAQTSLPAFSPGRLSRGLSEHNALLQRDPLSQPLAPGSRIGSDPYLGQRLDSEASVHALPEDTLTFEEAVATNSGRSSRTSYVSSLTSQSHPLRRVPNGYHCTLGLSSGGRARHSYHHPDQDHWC
T1 sequence (P54284 whole entry partner): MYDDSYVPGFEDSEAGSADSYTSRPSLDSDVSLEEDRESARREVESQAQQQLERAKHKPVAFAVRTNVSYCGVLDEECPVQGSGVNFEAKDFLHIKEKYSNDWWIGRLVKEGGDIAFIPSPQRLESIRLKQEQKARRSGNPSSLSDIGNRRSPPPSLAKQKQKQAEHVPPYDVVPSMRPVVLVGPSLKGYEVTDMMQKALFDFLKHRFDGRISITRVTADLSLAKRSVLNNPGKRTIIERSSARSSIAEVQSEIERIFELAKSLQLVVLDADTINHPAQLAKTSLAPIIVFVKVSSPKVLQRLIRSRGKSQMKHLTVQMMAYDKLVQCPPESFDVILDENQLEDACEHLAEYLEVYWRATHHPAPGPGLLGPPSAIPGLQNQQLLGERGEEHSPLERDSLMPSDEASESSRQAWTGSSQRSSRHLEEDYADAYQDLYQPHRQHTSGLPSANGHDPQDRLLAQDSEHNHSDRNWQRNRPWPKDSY
T1 sequence (P54289 25-946 partner limits assumed): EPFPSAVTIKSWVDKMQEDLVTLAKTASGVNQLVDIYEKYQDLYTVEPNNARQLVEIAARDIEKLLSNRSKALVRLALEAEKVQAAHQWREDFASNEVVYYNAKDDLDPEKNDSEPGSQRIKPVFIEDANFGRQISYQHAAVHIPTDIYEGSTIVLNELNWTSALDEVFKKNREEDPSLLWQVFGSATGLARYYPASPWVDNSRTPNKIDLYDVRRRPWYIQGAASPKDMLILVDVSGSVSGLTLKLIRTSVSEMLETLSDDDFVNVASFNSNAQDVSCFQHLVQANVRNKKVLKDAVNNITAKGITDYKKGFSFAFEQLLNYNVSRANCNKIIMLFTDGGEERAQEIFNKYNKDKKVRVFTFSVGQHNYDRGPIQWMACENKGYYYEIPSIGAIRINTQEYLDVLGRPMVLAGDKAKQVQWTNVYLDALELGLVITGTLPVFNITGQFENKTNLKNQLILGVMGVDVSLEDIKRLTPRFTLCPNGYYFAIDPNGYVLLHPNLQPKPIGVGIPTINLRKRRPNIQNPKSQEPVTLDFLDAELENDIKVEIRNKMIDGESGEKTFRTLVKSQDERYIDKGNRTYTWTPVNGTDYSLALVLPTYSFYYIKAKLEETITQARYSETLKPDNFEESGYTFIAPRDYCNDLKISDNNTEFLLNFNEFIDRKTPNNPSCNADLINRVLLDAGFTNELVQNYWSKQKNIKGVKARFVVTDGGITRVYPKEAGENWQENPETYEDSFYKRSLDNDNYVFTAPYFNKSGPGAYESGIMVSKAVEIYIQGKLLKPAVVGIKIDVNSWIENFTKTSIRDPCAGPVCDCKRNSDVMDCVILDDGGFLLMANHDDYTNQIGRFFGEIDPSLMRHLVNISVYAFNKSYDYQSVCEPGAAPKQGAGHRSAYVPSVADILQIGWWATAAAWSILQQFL
T1 sequence (P54289 947-1103 partner limits assumed): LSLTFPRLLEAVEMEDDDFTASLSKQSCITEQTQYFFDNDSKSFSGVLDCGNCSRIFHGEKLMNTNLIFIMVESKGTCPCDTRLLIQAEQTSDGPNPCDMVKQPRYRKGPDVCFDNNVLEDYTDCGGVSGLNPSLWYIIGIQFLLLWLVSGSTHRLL

| Structure (SMILES) | IC50 [1] | IC50 |
| --- | --- | --- |
| CCN(CC)S(=O)(=O)c1ccc2oc(C(=O)NCCCc3ccccc3)c(C)c2c1 [compound 318] | 5 to 20 µM |  |
| CC1CCN(S(=O)(=O)c2ccc3[nH]c(C(=O)N4CC(C)CC(C)C4)cc3c2)CC1 (stereo not drawn) [compound 319] | 5 to 20 µM |  |
| Cc1c(C(=O)NCCC2=CCCCC2)oc2ccc(S(=O)(=O)N3CCC4(CC3)OCCO4)cc12 [compound 320] | 5 to 20 µM |  |
| CCCCN(C)C(=O)c1oc2ccc(S(=O)(=O)N3CC(C)CC(C)C3)cc2c1C (stereo not drawn) [compound 321] | < 5 µM |  |
| CCN(CC)S(=O)(=O)c1ccc2oc(C(=O)NCCC3CCOCC3)c(C)c2c1 [compound 322] | < 20 µM |  |
| CC1CC(C)CN(S(=O)(=O)c2ccc3[nH]c(C(=O)NCCCc4ccccc4)cc3c2)C1 (stereo not drawn) [compound 323] | < 5 µM |  |
| Cc1c(C(=O)N2CCCC2)[nH]c2ccc(S(=O)(=O)N3CC(C)CC(C)C3)cc12 (stereo not drawn) [compound 324] | < 5 µM |  |
| CCCCN(C)C(=O)c1oc2ccc(S(=O)(=O)N3CCC(C)CC3)cc2c1C [compound 325] | < 5 µM |  |
| CCN(CC)Cc1cc2cc(S(=O)(=O)N3CCC(C)CC3)ccc2[nH]1 [compound 326] | < 5 µM |  |
| CC1CC(C)CN(S(=O)(=O)c2ccc3oc(C(=O)NCC4CCOCC4)cc3c2)C1 (stereo not drawn) [compound 327] | < 5 µM |  |
| CCOC(=O)N1CCN(C(=O)c2oc3ccc(S(=O)(=O)N(CC)CC)cc3c2C)CC1 [compound 328] | < 20 µM |  |
| CC1CC(C)CN(S(=O)(=O)c2ccc3[nH]c(C(=O)NC4CCCCC4)cc3c2)C1 (stereo not drawn) [compound 329] | 5 to 20 µM |  |
| Cc1c(C(=O)N2CCCCCC2)oc2ccc(S(=O)(=O)N3CC(C)CC(C)C3)cc12 (stereo not drawn) [compound 330] | < 5 µM |  |
| Cc1c(C(=O)NC2CCCCC2)[nH]c2ccc(S(=O)(=O)N3CC(C)CC(C)C3)cc12 (stereo not drawn) [compound 331] | < 5 µM |  |
| CCN(CC)S(=O)(=O)c1ccc2oc(C(=O)N3CCCC3)c(C)c2c1 [compound 332] | < 20 µM |  |
| CC1CC(C)CN(S(=O)(=O)c2ccc3oc(C(=O)N4CCCCC4C)cc3c2)C1 (stereo not drawn) [compound 333] | 5 to 20 µM |  |
| Cc1c(C(=O)N2CCCCC2C)oc2ccc(S(=O)(=O)N3CCCCCC3)cc12 (stereo not drawn) [compound 334] | 5 to 20 µM |  |
| O=C(NCCC1CCOCC1)c1cc2cc(S(=O)(=O)N3CCCCCC3)ccc2[nH]1 [compound 335] | < 5 µM |  |
| CCOC(=O)C1CCN(C(=O)c2oc3ccc(S(=O)(=O)N4CC(C)CC(C)C4)cc3c2C)CC1 (stereo not drawn) [compound 336] | < 5 µM |  |
| CCN(CC)S(=O)(=O)c1ccc2oc(C(=O)NCc3ccc(F)cc3)c(C)c2c1 [compound 337] | < 5 µM |  |
| CC1CCN(S(=O)(=O)c2ccc3[nH]cc(C(=O)N4CCN(C)CC4)c3c2)CC1 [compound 338] | < 20 µM |  |
| CC1CCN(C(=O)c2cc3cc(S(=O)(=O)N4CC(C)CC(C)C4)ccc3o2)CC1 (stereo not drawn) [compound 339] | < 5 µM |  |
| CC1CCN(S(=O)(=O)c2ccc3[nH]c(C(=O)NCCc4ccccc4)cc3c2)CC1 [compound 340] | < 5 µM |  |
| CCN(CC)S(=O)(=O)c1ccc2oc(C(=O)N3CCCCCC3)c(C)c2c1 [compound 341] | 5 to 20 µM |  |
| Cc1c(C(=O)N2CCC(C)CC2)[nH]c2ccc(S(=O)(=O)N3CCCCCC3)cc12 [compound 342] | < 5 µM |  |
| Cc1c(C(=O)N2CCC3(CC2)OCCO3)oc2ccc(S(=O)(=O)N3CC(C)CC(C)C3)cc12 (stereo not drawn) [compound 343] |  | 5 to 20 µM |

| Structure (SMILES) | IC50 [1] | IC50 |
| --- | --- | --- |
| CC1CC(C)CN(S(=O)(=O)c2ccc3[nH]c(C(=O)N4CCC5(CC4)OCCO5)cc3c2)C1 (stereo not drawn) [compound 344] |  | < 5 µM |
| CC1CCN(S(=O)(=O)c2ccc3[nH]c(C(=O)NCC4CCOCC4)cc3c2)CC1 [compound 345] | < 5 µM |  |
| CCOC(=O)N1CCN(C(=O)c2cc3cc(S(=O)(=O)N4CC(C)CC(C)C4)ccc3o2)CC1 (stereo not drawn) [compound 346] | < 5 µM |  |
| Cc1c(C(=O)N2CCCCCC2)oc2ccc(S(=O)(=O)N3CCC(C)CC3)cc12 [compound 347] | 5 to 20 µM |  |
| CC1CCN(S(=O)(=O)c2ccc3[nH]c(C(=O)N4CCCCCC4)cc3c2)CC1 [compound 348] | 5 to 20 µM |  |
| CC1CC(C)CN(S(=O)(=O)c2ccc3c(c2)cc(C(=O)NC2CC2)n3S(=O)(=O)c2ccccc2)C1 (stereo not drawn) [compound 349] | < 5 µM |  |
| Cc1c(C(=O)N2CCC3(CC2)OCCO3)[nH]c2ccc(S(=O)(=O)N3CCC(C)CC3)cc12 [compound 351] |  | 5 to 20 µM |
| Cc1c(C(=O)NCC2CCCO2)oc2ccc(S(=O)(=O)N3CCCCC3)cc12 (stereo not drawn) [compound 352] | 5 to 20 µM |  |
| Cc1c(C(=O)N(C)C)oc2ccc(S(=O)(=O)N3CCC(C)CC3)cc12 [compound 353] | 5 to 20 µM |  |
| O=C(c1cc2cc(S(=O)(=O)N3CCCCCC3)ccc2[nH]1)N1CCCCC1 [compound 354] | 5 to 20 µM |  |
| Cc1c(C(=O)NCC2CCCO2)[nH]c2ccc(S(=O)(=O)N3CCC(C)CC3)cc12 (stereo not drawn) [compound 355] | 5 to 20 µM |  |
| CCN(CC)S(=O)(=O)c1ccc2oc(C(=O)N3CCC4(CC3)OCCO4)c(C)c2c1 [compound 356] |  | < 20 µM |
| CC1CC(C)CN(S(=O)(=O)c2ccc3[nH]c(C(=O)NCc4ccccc4)cc3c2)C1 (stereo not drawn) [compound 357] | < 5 µM |  |
| O=C(c1cc2cc(S(=O)(=O)N3CCCCCC3)ccc2[nH]1)N1CCCCCC1 [compound 358] | 5 to 20 µM |  |
| Cc1c(C(=O)N2CCOCC2)oc2ccc(S(=O)(=O)N3CCC(C)CC3)cc12 [compound 359] | 5 to 20 µM |  |
| Cc1c(C(=O)N(C)Cc2ccccc2)oc2ccc(S(=O)(=O)N3CCOCC3)cc12 [compound 360] | 5 to 20 µM |  |
| Cc1c(C(=O)NC2CCCC2)oc2ccc(S(=O)(=O)N3CCOCC3)cc12 [compound 361] | < 20 µM |  |
| Cc1c(C(=O)N2CCCCCC2)[nH]c2ccc(S(=O)(=O)N3CC(C)CC(C)C3)cc12 (stereo not drawn) [compound 362] | < 5 µM |  |
| O=C(NCC1CCOCC1)c1cc2cc(S(=O)(=O)N3CCCCCC3)ccc2o1 [compound 363] | 5 to 20 µM |  |
| CC1CCN(C(=O)c2cc3cc(S(=O)(=O)N4CCCCCC4)ccc3[nH]2)CC1 [compound 364] | 5 to 20 µM |  |
| CNC(=O)c1oc2ccc(S(=O)(=O)N3CCCC(C)C3)cc2c1C (stereo not drawn) [compound 365] | 5 to 20 µM |  |
| CC1CC(C)CN(S(=O)(=O)c2ccc3[nH]c(C(=O)NC4CCCC4)cc3c2)C1 (stereo not drawn) [compound 366] | < 5 µM |  |
| CCN(CC)S(=O)(=O)c1ccc2oc(C(=O)N3CCCCC3)c(C)c2c1 [compound 367] | < 20 µM |  |
| CC1CCN(S(=O)(=O)c2ccc3[nH]c(C(=O)N4CCCCC4)cc3c2)CC1 [compound 368] | < 5 µM |  |
| CCCCN(C)C(=O)c1oc2ccc(S(=O)(=O)N3CCCC(C)C3)cc2c1C (stereo not drawn) [compound 369] | < 5 µM |  |
| CCN(CC)S(=O)(=O)c1ccc2oc(C(=O)NC3CCCCC3)c(C)c2c1 [compound 370] | 5 to 20 µM |  |

| Structure (SMILES) | IC50 [1] | IC50 |
| --- | --- | --- |
| Cc1c(C(=O)NC2CCCCC2)oc2ccc(S(=O)(=O)N3CCC4(CC3)OCCO4)cc12 [compound 371] | 5 to 20 µM |  |
| Cc1c(C(=O)N2CCOCC2)oc2ccc(S(=O)(=O)N3CCCCC3)cc12 [compound 372] | < 20 µM |  |
| Cc1c(C(=O)N(C)Cc2ccccc2)[nH]c2ccc(S(=O)(=O)N3CC(C)CC(C)C3)cc12 (stereo not drawn) [compound 373] | < 5 µM |  |
| CCN(CC)C(=O)c1cc2cc(S(=O)(=O)N3CC(C)CC(C)C3)ccc2n1CCCN1CCN(C)CC1 (stereo not drawn) [compound 374] | < 5 µM |  |
| COc1ccccc1CNC(=O)c1oc2ccc(S(=O)(=O)N3CCCC3)cc2c1C [compound 375] | 5 to 20 µM |  |
| Cc1c(C(=O)N2CCC(C)CC2)oc2ccc(S(=O)(=O)N3CCCC(C)C3)cc12 (stereo not drawn) [compound 376] | < 5 µM |  |
| CCCCN(C)C(=O)c1cc2cc(S(=O)(=O)N3CC(C)CC(C)C3)ccc2[nH]1 (stereo not drawn) [compound 377] | < 5 µM |  |
| Cc1c(C(=O)N2CCCC(C)C2)oc2ccc(S(=O)(=O)N3CC(C)CC(C)C3)cc12 (stereo not drawn) [compound 378] | < 5 µM |  |
| Cc1c(C(=O)N2CCCCC2C)[nH]c2ccc(S(=O)(=O)N3CCCCCC3)cc12 (stereo not drawn) [compound 379] | 5 to 20 µM |  |
| CC1CCN(S(=O)(=O)c2ccc3cc(C(=O)N(C)C)[nH]c3c2)CC1 [compound 380] | < 20 µM |  |
| Cc1c(C(=O)NCCc2ccccc2)[nH]c2ccc(S(=O)(=O)N3CCC(C)CC3)cc12 [compound 381] | < 5 µM |  |
| O=C(NCc1ccccc1)c1cc2cc(S(=O)(=O)N3CCCCCC3)ccc2[nH]1 [compound 382] | < 5 µM |  |
| Cc1c(C(=O)NCC2CCOCC2)oc2ccc(S(=O)(=O)N3CCCC(C)C3)cc12 (stereo not drawn) [compound 383] | 5 to 20 µM |  |
| CCNC(=O)c1cc2cc(S(=O)(=O)N3CC(C)CC(C)C3)ccc2[nH]1 (stereo not drawn) [compound 384] | < 5 µM |  |
| Cc1c(C(=O)N2CCN(C)CC2)oc2ccc(S(=O)(=O)N3CCC(C)CC3)cc12 [compound 385] | 5 to 20 µM |  |
| O=C(NCC1CCCO1)c1cc2cc(S(=O)(=O)N3CCCCCC3)ccc2[nH]1 (stereo not drawn) [compound 386] | < 5 µM |  |
| CCCS(=O)(=O)n1c(C(=O)N2CCCCC2)cc2cc(S(=O)(=O)N3CC(C)CC(C)C3)ccc21 (stereo not drawn) [compound 387] | < 5 µM |  |
| CCN(CC)S(=O)(=O)c1ccc2oc(C(=O)N3CCCC(C)C3)c(C)c2c1 (stereo not drawn) [compound 388] | 5 to 20 µM |  |
| CC1CC(C)CN(S(=O)(=O)c2ccc3[nH]c(C(=O)N4CCCCC4)cc3c2)C1 (stereo not drawn) [compound 389] | < 5 µM |  |
| Cc1c(C(=O)NC2CCCC2)[nH]c2ccc(S(=O)(=O)N3CC(C)CC(C)C3)cc12 (stereo not drawn) [compound 390] | < 5 µM |  |
| CC1CC(C)CN(S(=O)(=O)c2ccc3c(c2)cc(C(=O)N2CCCCC2)n3C)C1 (stereo not drawn) [compound 391] | < 5 µM |  |
| CC1CCCCN1C(=O)c1cc2cc(S(=O)(=O)N3CCCCCC3)ccc2o1 (stereo not drawn) [compound 392] | 5 to 20 µM |  |
| Cc1c(C(=O)NCCc2ccccc2)oc2ccc(S(=O)(=O)N3CC(C)CC(C)C3)cc12 (stereo not drawn) [compound 393] | < 5 µM |  |
| Cc1ccc(CNS(=O)(=O)c2ccc3oc(C(=O)NC4CC4)c(C)c3c2)cc1 [compound 394] | < 20 µM |  |
| Cc1c(C(=O)NC2CC2)oc2ccc(S(=O)(=O)N3CCC(C)CC3)cc12 [compound 395] | 5 to 20 µM |  |
| Cc1c(C(=O)N(CCN(C)C)Cc2ccccc2)oc2ccc(S(=O)(=O)N3CCC(C)CC3)cc12 [compound 396] | < 5 µM |  |
